Assay results reported in publication PMC9864536, “Inter-Species Redox Coupling by Flavin Reductases and FMN-Dependent Two-Component Monooxygenases Undertaking Nucleophilic Baeyer–Villiger Biooxygenations” (Microorganisms, 2022).

Columns and labels:
LuxAB luciferase = target: T1, LuxAB luciferase (Aliivibrio fischeri, UniProt P19907); assay: […] min biotransformation with FMNH2 supplied by purified flavin reductases, GC; type: biochemical; conditions: FMNH2 cosubstrate generated in situ from FMN and NADH, 1 mM ketone, pH 7.6, 25 °C
T1 construct: gene luxA; natively purified LuxAB luciferase, untagged; with Alkanal monooxygenase beta chain
T1 sequence (P19907 1-354): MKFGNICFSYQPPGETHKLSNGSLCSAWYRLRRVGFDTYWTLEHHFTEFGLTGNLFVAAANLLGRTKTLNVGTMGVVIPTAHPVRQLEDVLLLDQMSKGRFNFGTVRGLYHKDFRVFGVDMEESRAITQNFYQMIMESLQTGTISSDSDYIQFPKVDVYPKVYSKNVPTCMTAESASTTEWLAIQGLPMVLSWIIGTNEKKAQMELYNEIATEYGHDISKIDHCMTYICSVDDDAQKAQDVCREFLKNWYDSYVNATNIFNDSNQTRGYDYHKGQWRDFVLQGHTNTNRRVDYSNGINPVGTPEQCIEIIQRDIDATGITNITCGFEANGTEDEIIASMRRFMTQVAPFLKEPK
T1 sequence (P19908 1-326 partner): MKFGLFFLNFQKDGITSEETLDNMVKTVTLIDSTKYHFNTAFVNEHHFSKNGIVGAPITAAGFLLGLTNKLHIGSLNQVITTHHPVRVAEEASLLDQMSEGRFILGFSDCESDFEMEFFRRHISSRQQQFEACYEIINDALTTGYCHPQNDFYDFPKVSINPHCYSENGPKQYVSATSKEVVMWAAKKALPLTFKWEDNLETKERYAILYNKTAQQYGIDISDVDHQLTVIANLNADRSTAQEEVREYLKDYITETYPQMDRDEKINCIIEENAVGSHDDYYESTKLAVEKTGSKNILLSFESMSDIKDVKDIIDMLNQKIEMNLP

3,6-DKCMO = target: T2, 3,6-DKCMO (Pseudomonas putida, UniProt D7UER1); assay: as above; type: biochemical; conditions: FMNH2 cosubstrate generated in situ from FMN and NADH, 1 mM ketone, pH 7.6, 25 °C
T2 construct: gene camE36; natively purified biooxygenating subunit, untagged
T2 sequence (D7UER1 1-378): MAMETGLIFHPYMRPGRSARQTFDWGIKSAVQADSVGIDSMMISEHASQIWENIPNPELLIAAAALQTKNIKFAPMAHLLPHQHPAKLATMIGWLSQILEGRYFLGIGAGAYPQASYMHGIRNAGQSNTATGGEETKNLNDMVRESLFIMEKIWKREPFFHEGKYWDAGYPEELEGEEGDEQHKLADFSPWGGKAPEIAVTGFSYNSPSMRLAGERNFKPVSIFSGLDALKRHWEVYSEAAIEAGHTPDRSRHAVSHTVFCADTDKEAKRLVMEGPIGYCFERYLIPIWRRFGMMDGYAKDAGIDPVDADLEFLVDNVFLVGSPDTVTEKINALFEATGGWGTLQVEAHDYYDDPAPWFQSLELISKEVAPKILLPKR

Frp2 = assay: initial rate of FMN reduction by NADH at […] nm, single-enzyme, Michaelis-Menten; type: biochemical, Pseudomonas putida; conditions: co-substrate NADH, anaerobic; single-enzyme assay (S); read-out: Apparent KmFMN
Frp1 = assay: as above; type: biochemical, Pseudomonas putida; conditions: co-substrate NADH, anaerobic; single-enzyme assay (S); read-out: Apparent KmFMN
purified protein = substrate: Cc1cc2nc3c(=O)[nH]c(=O)nc-3n(C[C@H](O)[C@H](O)[C@H](O)COP(=O)(O)O)c2cc1C; assay: purified protein; type: biochemical, Aliivibrio fischeri; conditions: co-substrate NADH, anaerobic; single-enzyme assay (S)

In the case of `Cc1cc2c(cc1C)N(C[C@H](O)[C@H](O)[C@H](O)COP(=O)(O)O)c1[nH]c(=O)[nH]c(=O)c1N2` [FMNH2], the “120 min biotransformation with FMNH2 supplied by purified flavin reductases, GC” value (LuxAB luciferase) is reported as “can biooxygenate the bicyclic ketone by sourcing the requisite FMNH2 cosubstrate” and the “120 min biotransformation with FMNH2 supplied by purified flavin reductases, GC” value (3,6-DKCMO) is reported as “can biooxygenate the bicyclic ketone by sourcing the requisite FMNH2 cosubstrate”.

For `Cc1cc2nc3c(=O)[nH]c(=O)nc-3n(C[C@H](O)[C@H](O)[C@H](O)COP(=O)(O)O)c2cc1C` [FMN], the Km (Frp2) was 4.2 µM and the Km (Frp1) was 2.5 µM.

B1: FreVf (Aliivibrio fischeri) (protein)
chain: MPINCKVKSIEPLACNTFRILLHPEQPVAFKAGQYLTVVMGEKDKRPFSIASSPCRHEGEIELHIGAAEHNAYAGEVVESMKSALETGGDILIDAPHGEAWIREDSDRSMLLIAGGTGFSYVRSILDHCISQQIQKPIYLYWGGRDECQLYAKAELESIAQAHSHITFVPVVEKSEGWTGKTGNVLEAVKADFNSLADMDIYIAGRFEMAGAAREQFTTEKQAKKEQLFGDAFAFI
Work on B1 yielded a Km (purified protein) of 2.5 µM.

B2: FRGVf (Aliivibrio fischeri) (protein)
chain: THPIIHDLENRYTSKKYDPSKKVSQEDLAVLLEALRLSASSINSQPWKFIVIESDAAKQRMHDSFANMHQFNQPHIKACSHVILFANKLSYTRDDYDVVLSKAVADKRITEEQKEAAFASFKFVELNCDENGEHKAWTKPQAYLALGNALHTLARLNIDSTTMEGIDPELLSEIFADELKGYECHVALAIGYHHPSEDYNASLPKSRKAFEDVITIL
With B2 the Km (purified protein) was 4.3 µM.
